Experimental data published in US20230286973A1, “PROTEIN SECRETION INHIBITORS” (KEZAR LIFE SCIENCES, priority 2020, published 2023).

Legend:
[1] = tested on: PD1-ss+10aa/Gaussia Luciferase; assay: Dox-Induced PD1-ss-Gluc Assay; type: cell-based; conditions: 24 hr Dox induction; 293FRT/TO cells; mean; read-out: 24 hr Dox Inducible PD1ssGluc 293FRT/TO: Mean IC50
Outline: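 The cell line was made by transfecting Flp-In 293 T-REx cells with a PD1 signal sequence+10aa–Gaussia luciferase fusion under T-REx control and selecting with hygromycin and blasticidin. Cells were seeded, and next day compound plus doxycycline was added at 37 °C, 5% CO2.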

[2] = tested on: IL-2-FL/Gaussia Luciferase; assay: Dox Induced IL2-FL-Gluc Assay; type: cell-based; conditions: for IC50: 24 hr Dox induction, 293FRT/TO cells, mean, read-out: 24 hr Dox Inducible IL2FLGluc 293FRT/TO: Mean IC50; for 24 hr Dox Inducible IL2FLGluc 293FRT/TO: IL2/PD1: ratio of IL2FLGluc IC50 to PD1ssGluc IC50, '<=>' given where both are I.A.
Outline: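 Stable Flp-In 293 T-REx line, Tet-regulated IL-2 (aa 1-153)–Gaussia luciferase fusion; hygromycin/blasticidin selected. Plated day -1; compound + doxycycline added next day; 37° C, 5% CO2.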

[3] = Liver Microsome Stability Assay (monkey); conditions: monkey liver microsomes, with NADPH, 1.0 uM compound
Protocol: (§1) Stability of a compound was assessed in the presence of liver microsomes from various sources—mouse, rat, monkey and human liver microsomes. 1.0 uM compound, 0.4% DMSO in 0.1 M Potassium Phosphate with 1.0 mg/mL liver microsomes, were incubated at 37° C. with or without 1 mM NADPH. The samples were quenched at 0, and 30 minutes.

[4] = tested on: multiple myeloma cell line NCI-H929; assay: H929 Cell Viability Assay; type: cell-based, human; conditions: Homo sapiens, NCI-H929, 48 h, NCI-H929 cells, Celltiter-Glo
Outline: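 Cells in RPMI 1640/10% FBS; compound dilutions in DMSO/media; 48 h, 37° C, 5% CO2; CellTiter-Glo luciferase readout for viability.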

[5] = Liver Microsome Stability Assay (rat); conditions: rat liver microsomes, with NADPH, 1.0 uM compound
Protocol: as §1

[6] = Liver Microsome Stability Assay (human); conditions: human liver microsomes, with NADPH, 1.0 uM compound
Protocol: as §1

[7] = Liver Microsome Stability Assay (mouse); conditions: mouse liver microsomes, with NADPH, 1.0 uM compound
Protocol: as §1

[8] = tested on: TNFα-FL/Gaussia Luciferase; assay: Dox Induced TNFα-FL-Gluc Assay; type: cell-based; conditions: for IC50: 24 hr Dox induction, 293FRT/TO cells, mean, read-out: 24 hr Dox Inducible TNFaFLGluc 293FRT/TO: Mean IC50; for 24 hr Dox Inducible TNFaFLGluc 293FRT/TO: TNF/PD1: ratio of TNFaFLGluc IC50 to PD1ssGluc IC50, '<=>' given where both are I.A.
Outline: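 Cell line: stable Flp-In 293 T-REx, TNFα-FL(1-233)-Gaussia luciferase fusion, T-REx-inducible. Plated day -1; compounds in DMSO/media + doxycycline, 37 °C, 5% CO2. Undefined stereocentres = mixture tested.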

[9] = tested on: multiple myeloma cell line U266B1; assay: U266 Cell Viability Assay; type: cell-based, human; conditions: Homo sapiens, U-266, 48 h, U266B1 cells, Celltiter-Glo
Outline: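 Luminescent ATP read-out (CellTiter-Glo) after 48 h compound exposure at 37° C., 5% CO2; cells maintained in RPMI 1640/10% FBS/2 mM glutamine/pen-strep, compounds diluted in DMSO/media.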

[10] = tested on: HER3-ss+4aa/Gaussia Luciferase; assay: Dox-Induced Her3-ss-Gluc Assay; type: cell-based; conditions: 24 hr Dox induction; 293FRT/TO cells; mean; read-out: 24 hr Dox Inducible Her3(ss + 4)Gluc 293FRT/TO: Mean IC50
Outline: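 Flp-In 293 T-REx cells, stable HER3-ss+4aa/Gaussia luciferase insert, hygromycin/blasticidin selected; plated day before; compound in DMSO/media + doxycycline; 37° C., 5% CO2.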

Structure (SMILES)	IC50 [1] [nM]	IC50 [2] [nM]	24 hr Dox Inducible IL2FLGluc 293FRT/TO: IL2/PD1 [2]	Liver Microsome Stability (Multiple Species): Monkey - % Remaining after 30 min w/NADPH [3] [%]	EC50 [4] [µM]	Liver Microsome Stability (Multiple Species): Rat - % Remaining after 30 min w/NADPH [5] [%]	Liver Microsome Stability (Multiple Species): Human - % Remaining after 30 min w/NADPH [6] [%]	Liver Microsome Stability (Multiple Species): Mouse - % Remaining after 30 min w/NADPH [7] [%]	IC50 [8] [nM]	24 hr Dox Inducible TNFaFLGluc 293FRT/TO: TNF/PD1 [8]	EC50 [9] [µM]	IC50 [10] [nM]
O=C(Nc1nc([C@H]2CCCN2c2ccccc2)cs1)c1cccn1Cc1ccnnc1 [Compound C102, (R)-N-(4-(1-phenylpyrrolidin-2-yl)thiazol-2-yl)-1-(pyridazin-4-ylmethyl)-1H-pyrrole-2-carboxamide]	44.2	97.5	2.2	0.39	3.98	2.73	0.93	6.44	984	22.2	14.6	109
CC(=O)N1CCC(Oc2ccc(N3CCC[C@@H]3c3csc(NC(=O)c4cccn4CC4CCOCC4)n3)cc2)CC1 [Compound C103, (R)-N-(4-(1-(4-((1-acetylpiperidin-4-yl)oxy)phenyl)pyrrolidin-2-yl)thiazol-2-yl)-1-((tetrahydro-2H-pyran-4-yl)methyl)-1H-pyrrole-2-carboxamide]	665	1160	1.7	12.9	14	30	34.8	54.8	4990	7.5	> 25	1340
CC(=O)NCc1ccc(N2CCC[C@@H]2c2csc(NC(=O)c3cccn3CC3CCOCC3)n2)cc1 [Compound C104, (R)-N-(4-(1-(4-(acetamidomethyl)phenyl)pyrrolidin-2-yl)thiazol-2-yl)-1-((tetrahydro-2H-pyran-4-yl)methyl)-1H-pyrrole-2-carboxamide]	143	412	2.9	0.09	6.16	0.82	3.01	4.94	2410	16.8	> 25	350
NC(=O)c1ccc(N2CCC[C@@H]2c2csc(NC(=O)c3cccn3CC3CCOCC3)n2)cc1 [Compound C105, (R)-N-(4-(1-(4-carbamoylphenyl)pyrrolidin-2-yl)thiazol-2-yl)-1-((tetrahydro-2H-pyran-4-yl)methyl)-1H-pyrrole-2-carboxamide]	36	157	4.4	0.67	3.65	1.71	0.19	1.99	900	25	> 25	107
N#CC1CC(Cn2cccc2C(=O)Nc2nc([C@H]3CCCN3c3ccccc3)cs2)C1 (stereo partly drawn) [Compound C106, (R)-1-((3-cyanocyclobutyl)methyl)-N-(4-(1-phenylpyrrolidin-2-yl)thiazol-2-yl)-1H-pyrrole-2-carboxamide]	1090	2640	2.4	1.96	> 25	3.54	19	28.8	19400	17.7	> 25	1430
CC(=O)Nc1ccc(N2CCC[C@@H]2c2csc(NC(=O)c3cccn3CC3CCOCC3)n2)cc1 [Compound C107, (R)-N-(4-(1-(4-acetamidophenyl)pyrrolidin-2-yl)thiazol-2-yl)-1-((tetrahydro-2H-pyran-4-yl)methyl)-1H-pyrrole-2-carboxamide]	32.2	87.1	2.7	5.47	2.16	18.2	23.7	16.4	793	24.6	> 25	56.2
CCc1ccc(N2CCC[C@@H]2c2csc(NC(=O)c3cccn3CC3CCOCC3)n2)cc1 [Compound C110, (R)-N-(4-(1-(4-ethylphenyl)pyrrolidin-2-yl)thiazol-2-yl)-1-((tetrahydro-2H-pyran-4-yl)methyl)-1H-pyrrole-2-carboxamide]	31.4	94.9	3	22.2	1.78	36	61.3	74.3	302	9.61	> 25	46.4
O=C(Nc1nc([C@H]2CCCN2c2ccccc2)cs1)c1cccn1-c1cccc2cnccc12 [Compound C111, (R)-1-(isoquinolin-5-yl)-N-(4-(1-phenylpyrrolidin-2-yl)thiazol-2-yl)-1H-pyrrole-2-carboxamide]	318	654	2.1	0.28	> 25	0.62	0.86	0.64	4940	15.5	> 25	295
